Test results as given in patent publication US20120252801A1, “ANTIFUNGAL COMPOUNDS” (Katholieke Universiteit Leuven, K.U.Leuven R&D, priority 2009, published 2012).
Values after ≈ are worked out from the molar mass of the structure shown.

Assays:
C. albicans SC5314 [1] = assay: C. elegans model for C. albicans infection; type: in vivo; conditions: different concentrations; FIG. 1
Experimental: The in vivo efficacy of the compounds was assessed in a C. elegans model for Candida infection as described by Breger et al., 2007 (Breger, J., et al. 2007. PLoS Pathog. 3:[…]). To this end, L4 larvae of a double mutant (glp-[…]) of C. elegans were used and fed for 4 h on C. albicans SC5314 agar plates (YPD agar plates on the surface inoculated with 100 μl of an overnight culture in YPD and incubated for 16 h at 37° C.). Worms were collected and washed with M9 buffer containing 3 g/L KH2PO4, 6 g/L Na2HPO4, 5 g/L NaCl, 1 mM MgSO4, 10 μg/mL cholesterol and 100 μg/mL Kanamycin. Forty-to-fifty worms were suspended in 1 mL in each well of 24-well microtiterplates, in the presence or absence (DMSO control) of the compounds of the invention (at different concentrations). Survival of the worms was monitored daily. The percentage survival of the worms in the presence or absence of antifungal compounds was calculated each day relative to the survival at day 0. Data are means of duplicate measurements and experiments were performed at least twice. As positive controls for efficacy testing, amphotericin B (10 μg/ml) and miconazole (10 μg/ml) in DMSO can be used.

C. albicans SC5314 [2] = assay: Mouse model for Candidiasis, fungal burden in the kidney; type: in vivo, BALB/c mice; conditions: 10 mg/kg intraperitonealy, once or twice a day; kidneys 5 days after infection; FIG. 2
Excerpt: An assay for in vivo efficacy measurement using mouse model for Candidiasis Fungal burden in the kidney of infected mice was used to evaluate the (prophylactic and/or therapeutic) activity of the compounds of the invention in murine models of infection by C. albicans, as described in the prior art (Tavares P M et al. Antimicrob Agents Chemother. 2008 December; 52(12):4522-5; Clemons K V, D A Stevens, J Antimicrob. Chemother. 2001; 47:183-186; Okawa Yet al., Biol Pharm Bull 2007, 30:1870-1873). In general, mice can be inoculated intravenously via lateral tail vein with 2×10^5 to […] C. albicans yeast cells suspended in saline. The compounds can be administered (for example intravenously or intraperitonealy or orally) before (for example 1 hour before) or after (for example 16 hours after) the challenge with C. albicans. After this first injection, four similar subsequent injections can be made with 24 h or other intervals. […] 100 μl-samples can be plated onto solid brain heart infusion (BHI) plates and C. albicans CFU (colony forming units) are counted after 2 days.
More specifically, the in vivo experiment was performed as following (in accordance with Tavares P M et al. Antimicrob Agents Chemother. 2008 December; 52(12):4522-5). […] 100 μl-samples were plated onto solid brain heart infusion (BHI) plates and C. albicans CFU (colony forming units) were counted after 2 days. […]

HepG2 cells = assay: Cellular cytostatic and/or cytotoxic effect on HepG2 cells; type: cell-based
Experimental: Evaluation of the cytostatic and/or cytotoxic effect of compounds on certain specific eukaryotic cells is a standard procedure and well known to the person skilled in the art. The effect of a selection of compounds of the invention on the proliferation of HepG2 cells was measured.

C. albicans SC5314 [3] = assay: Minimal fungicidal concentration (MFC) against C. albicans; type: cell-based; conditions: Candida albicans, 24 h at 37° C. in PBS, less than 1% survival relative to DMSO control
Experimental: (§1) Two-fold dilution series of the compounds were prepared in 50% DMSO. 5 μl of these series were added to 95 μl PBS buffer inoculated with 1/500 cells of an overnight culture of either C. albicans, C. glabrata or C. krusei (final DMSO conc 2%). 2% DMSO served as negative control. After 24 h incubation at 37° C. of these cultures with the antifungal compounds in PBS, the cell cultures were plated on YPD agar and colony forming units (CFUs) were determined after incubation of the plates for 2 days. MFC was determined as the minimal concentration of a compound resulting in less than 1% survival of the yeast culture relative to the DMSO control.

Fusarium oxysporum = assay: Minimal inhibitory concentration (MIC) against F. oxysporum; type: cell-based; conditions: 24 h at 25° C. in ½ PDB, minimal concentration that inhibits growth
Experimental: (§2) To determine the MIC and MFC of a compound against Aspergillus flavus, Fusarium oxysporum or F. culmorum, a 2-fold dilution series of the compounds of the invention was incubated with the corresponding spore suspension in ½ PDB (potato dextrose broth, Difco) (2×10^4 spores/ml). […] MFC was determined as the minimal concentration of a compound resulting in less than 1% survival of the fungal culture relative to the DMSO control.

Aspergillus flavus = assay: Minimal inhibitory concentration (MIC) against A. flavus; type: cell-based; conditions: 24 h at 25° C. in ½ PDB, minimal concentration that inhibits growth
Experimental: as §2

A. fumigatus = assay: Minimal inhibitory concentration (MIC) against A. fumigatus; type: cell-based; conditions: Aspergillus fumigatus; minimal concentration that inhibits growth
C. glabrata = assay: Minimal fungicidal concentration (MFC) against C. glabrata; type: cell-based, Candida glabrata; conditions: Nakaseomyces glabratus; 24 h at 37° C. in PBS; less than 1% survival relative to DMSO control
Experimental: as §1

Q: For `CCN1CC(C)(C)OC(=O)C1CC(=O)Nc1ccc(C(C)C)cc1` (centres unmarked) [CPD-06, 2-(4-ethyl-6,6-dimethyl-2-oxomorpholin-3-yl)-N-(4-isopropylphenyl)acetamide], which “% survival of C. albicans infected C. elegans” value (C. albicans SC5314 [1]) is on record?
A: increase in survival

Q: What about the “activity against Candida albicans infection (CFU from kidneys)” value (C. albicans SC5314 [2]) of the same compound?
A: strong activity

Q: And the “LD30 48 h (lethal dose for 30% of the cells in culture)” value (HepG2 cells)?
A: >25 µM

Q: And the MFC (C. albicans SC5314 [3])?
A: 12.5 µg/mL (≈ 37.6 µM)

Q: What about the MIC (Fusarium oxysporum) of the same compound?
A: 50 µg/mL (≈ 150 µM)

Q: And the MIC (Aspergillus flavus)?
A: 12.5 µg/mL (≈ 37.6 µM)

Q: And the MIC (A. fumigatus)?
A: 1.6 µg/mL (≈ 4.81 µM)

Q: And the MFC (C. glabrata)?
A: 25 µg/mL (≈ 75.2 µM)
